Source: PMC5838249, “The Apicomplexa-specific glucosamine-6-phosphate N-acetyltransferase gene family encodes a key enzyme for glycoconjugate synthesis with potential as therapeutic target” (Scientific Reports, 2018)

Legend:
PfGNA1 = biological target: T1, PfGNA1 (Plasmodium falciparum, UniProt C6KTC5); assay: HPLC-MS/MS GNA1 assay; format: biochemical; conditions: 500 µM AcCoA, 500 µM GlcN-6P, 25 mM Tris-HCl, 150 mM NaCl, pH 7.2, room temperature
T1 construct: gene PF3D7_0629000; deficiently expressed
T1 sequence (C6KTC5 1-291): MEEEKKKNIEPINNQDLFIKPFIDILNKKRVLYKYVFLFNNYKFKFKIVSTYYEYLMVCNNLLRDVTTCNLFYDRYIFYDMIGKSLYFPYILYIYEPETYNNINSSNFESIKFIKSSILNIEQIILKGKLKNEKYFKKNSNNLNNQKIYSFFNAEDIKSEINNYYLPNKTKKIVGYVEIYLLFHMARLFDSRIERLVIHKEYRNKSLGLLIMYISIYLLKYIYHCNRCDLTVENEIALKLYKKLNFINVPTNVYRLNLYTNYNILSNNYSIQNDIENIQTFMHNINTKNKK

TgGNA1 = biological target: T2, TgGNA1 (Toxoplasma gondii, UniProt A0A7J6K6Y4); assay: HPLC-MS/MS and colorimetric GNA1 assay; format: biochemical; conditions: […] AcCoA, […] GlcN-6P, […] Tris-HCl, […] NaCl, pH […], room temperature
T2 construct: gene TGRH88_028800
T2 sequence (A0A7J6K6Y4 1-516): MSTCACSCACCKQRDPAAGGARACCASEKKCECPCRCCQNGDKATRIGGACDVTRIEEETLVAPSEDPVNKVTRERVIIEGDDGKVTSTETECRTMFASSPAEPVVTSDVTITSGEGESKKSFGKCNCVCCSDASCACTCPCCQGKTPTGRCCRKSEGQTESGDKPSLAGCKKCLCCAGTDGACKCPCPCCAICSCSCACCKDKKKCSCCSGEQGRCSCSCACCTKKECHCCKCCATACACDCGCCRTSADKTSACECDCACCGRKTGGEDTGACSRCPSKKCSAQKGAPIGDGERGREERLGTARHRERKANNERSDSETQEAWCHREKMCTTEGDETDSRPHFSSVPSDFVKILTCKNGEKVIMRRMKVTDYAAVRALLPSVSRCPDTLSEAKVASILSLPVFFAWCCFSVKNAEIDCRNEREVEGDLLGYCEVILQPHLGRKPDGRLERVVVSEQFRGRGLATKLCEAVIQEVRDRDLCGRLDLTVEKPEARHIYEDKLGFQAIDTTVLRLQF

N[C@H]1C(O)O[C@H](COP(=O)(O)O)[C@@H](O)[C@@H]1O (stereo partly shown) [GlcN-6P]
HPLC-MS/MS GNA1 assay (PfGNA1): PfGNA1 and TaGNA1 were deficiently expressed, they also showed residual activity as detected by HPLC-MS/MS
HPLC-MS/MS and colorimetric GNA1 assay (TgGNA1): TgGNA1 distinctly acetylated GlcN-6P

CC(=O)SCCNC(=O)CCNC(=O)[C@H](O)C(C)(C)COP(=O)(O)OP(=O)(O)OC[C@H]1O[C@@H](n2cnc3c(N)ncnc32)[C@H](O)[C@@H]1OP(=O)(O)O [AcCoA]
HPLC-MS/MS GNA1 assay (PfGNA1): PfGNA1 and TaGNA1 were deficiently expressed, they also showed residual activity as detected by HPLC-MS/MS
HPLC-MS/MS and colorimetric GNA1 assay (TgGNA1): The enzymes used GlcN-6P as substrate and AcCoA as donor to produce GlcNAc-6P
